Data as given in ChEMBL document CHEMBL1201862, “PubChem BioAssay data set” (2004).
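Step 1: Grow cells in 96-well plates. Step 2: Expose to compound for 48 hours at 5 concentrations. Step 3: Interpolate endpoints linearly; if unreached, use highest concentration. GI50 = concentration required for 50% inhibition of growth.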 The source made the active and inactive calls. Rule as the data show it: active = GI50 up to about 1.1 µM and inactive = higher.

Experiments:
Assay in all cases: NCI anticancer screen, dose series, 48 h
[1] = tested on: SK-MEL-5
[2] = tested on: M14
[3] = tested on: SNB-19
[4] = tested on: HT-29
[5] = tested on: OVCAR-3
[6] = tested on: TK-10
[7] = tested on: IGROV-1
[8] = tested on: KM12
[9] = tested on: UACC-257
[10] = tested on: SK-OV-3
[11] = tested on: LOX IMVI
[12] = tested on: UACC-62
[13] = tested on: SN12C
[14] = tested on: 786-0
[15] = tested on: OVCAR-8
[16] = tested on: MOLT-4
[17] = tested on: CCRF-CEM

| SMILES | GI50 [1] | GI50 [2] | GI50 [3] | GI50 [4] | GI50 [5] | GI50 [6] | GI50 [7] | GI50 [8] | GI50 [9] | GI50 [10] | GI50 [11] | GI50 [12] | GI50 [13] | GI50 [14] | GI50 [15] | GI50 [16] | GI50 [17] |
| --- | --- | --- | --- | --- | --- | --- | --- | --- | --- | --- | --- | --- | --- | --- | --- | --- | --- |
| COc1cccc2c1C1(O)C2CCCC12OCCCO2 (stereo not given) | > 100 µM (inactive) | > 100 µM (inactive) | > 100 µM (inactive) | > 100 µM (inactive) | > 100 µM (inactive) | > 100 µM (inactive) | > 100 µM (inactive) | > 100 µM (inactive) | > 100 µM (inactive) | > 100 µM (inactive) | > 100 µM (inactive) | > 100 µM (inactive) | > 100 µM (inactive) | > 100 µM (inactive) | > 100 µM (inactive) | > 100 µM (inactive) | > 100 µM (inactive) |
| O=c1nc(-c2ccccc2)c2c3c(cccn13)CCC2 | > 100 µM (inactive) | > 100 µM (inactive) | > 100 µM (inactive) | > 100 µM (inactive) | > 100 µM (inactive) | > 100 µM (inactive) | > 100 µM (inactive) | > 100 µM (inactive) | > 100 µM (inactive) | > 100 µM (inactive) | > 100 µM (inactive) | > 100 µM (inactive) | > 100 µM (inactive) | > 100 µM (inactive) | > 100 µM (inactive) | > 100 µM (inactive) | > 100 µM (inactive) |
| Cc1cccc(/C=N/N=C(\N)NO)n1 | 27.5 µM (inactive) | 41.5 µM (inactive) |  | 48.4 µM (inactive) | > 100 µM (inactive) | > 100 µM (inactive) | 7.26 µM (inactive) | 14.4 µM (inactive) | > 100 µM (inactive) | 19.9 µM (inactive) | 5.73 µM (inactive) | 2.12 µM (inactive) | > 100 µM (inactive) | 36.8 µM (inactive) | 58.7 µM (inactive) | 51.4 µM (inactive) | 42.5 µM (inactive) |
| Nc1ccccc1/C(O)=C1/CCOC1=O |  | > 100 µM (inactive) | > 100 µM (inactive) | > 100 µM (inactive) | > 100 µM (inactive) | > 100 µM (inactive) | > 100 µM (inactive) | > 100 µM (inactive) | > 100 µM (inactive) | > 100 µM (inactive) |  | > 100 µM (inactive) | > 100 µM (inactive) | > 100 µM (inactive) | > 100 µM (inactive) | > 100 µM (inactive) | > 100 µM (inactive) |
| O=[N+]([O-])C=C1c2ccccc2-c2ccccc21 |  | 12.7 µM (inactive) | 23 µM (inactive) | 20 µM (inactive) | 15.1 µM (inactive) | 18.3 µM (inactive) | > 10 µM (inactive) | 17.3 µM (inactive) | 19.1 µM (inactive) |  | 16.6 µM (inactive) |  | 18.9 µM (inactive) | 16.7 µM (inactive) | 16.4 µM (inactive) | 3.7 µM (inactive) | 4.91 µM (inactive) |
| COc1ccc(C(O)C(c2ccc(OCc3ccccc3)cc2)c2ccc(OCc3ccccc3)cc2)cc1 (stereo not given) | > 100 µM (inactive) | > 100 µM (inactive) | > 100 µM (inactive) | > 100 µM (inactive) | > 100 µM (inactive) | > 100 µM (inactive) | > 100 µM (inactive) | > 100 µM (inactive) |  | > 100 µM (inactive) |  | > 100 µM (inactive) | > 100 µM (inactive) | > 100 µM (inactive) | > 100 µM (inactive) |  | > 100 µM (inactive) |
| CCC(C)CN1C(=O)NC(C)(Cc2ccccc2)C1=O (stereo not given) | > 100 µM (inactive) | > 100 µM (inactive) | > 100 µM (inactive) | > 100 µM (inactive) |  | > 100 µM (inactive) |  | > 100 µM (inactive) | > 100 µM (inactive) |  | > 100 µM (inactive) |  | > 100 µM (inactive) | > 100 µM (inactive) | > 100 µM (inactive) |  |  |
| O=C(CCCC(=O)Nc1ccc(Cl)cc1Cl)CC(=O)c1ccc2ccccc2c1 | > 100 µM (inactive) | > 100 µM (inactive) | > 100 µM (inactive) | > 100 µM (inactive) | > 100 µM (inactive) | > 100 µM (inactive) | > 100 µM (inactive) | > 100 µM (inactive) | > 100 µM (inactive) | > 100 µM (inactive) | > 100 µM (inactive) | > 100 µM (inactive) | > 100 µM (inactive) | > 100 µM (inactive) | > 100 µM (inactive) | > 100 µM (inactive) | > 100 µM (inactive) |
| Oc1ncnc2c1nnn2CCCn1nnc2c(O)ncnc21 | > 100 µM (inactive) | > 100 µM (inactive) | > 100 µM (inactive) | > 100 µM (inactive) | > 100 µM (inactive) | > 100 µM (inactive) | > 100 µM (inactive) | > 100 µM (inactive) | > 100 µM (inactive) | > 100 µM (inactive) | > 100 µM (inactive) | > 100 µM (inactive) | > 100 µM (inactive) | > 100 µM (inactive) | > 100 µM (inactive) | > 100 µM (inactive) | > 100 µM (inactive) |
| CC1=NN(C(=O)c2ccc([N+](=O)[O-])cc2)C(=O)C1/N=N/c1ccccc1C(=O)O (stereo not given) | > 100 µM (inactive) |  | > 100 µM (inactive) | > 100 µM (inactive) | > 100 µM (inactive) | > 100 µM (inactive) | > 100 µM (inactive) | > 100 µM (inactive) | > 100 µM (inactive) | 53.6 µM (inactive) |  | 45 µM (inactive) | > 100 µM (inactive) | > 100 µM (inactive) | > 100 µM (inactive) | > 100 µM (inactive) | 75 µM (inactive) |
| O=C(CCCCCCCCCCc1ccccc1)C1=C(O)CCCC1=O | 18.1 µM (inactive) | 41.2 µM (inactive) | 46.2 µM (inactive) | 26.6 µM (inactive) | 32.8 µM (inactive) | 42.2 µM (inactive) | 35.4 µM (inactive) | 30.9 µM (inactive) | 34 µM (inactive) | 35.6 µM (inactive) | 26.2 µM (inactive) | 25.5 µM (inactive) | 35.2 µM (inactive) | 31.7 µM (inactive) | 24.4 µM (inactive) | 30.3 µM (inactive) | 16.8 µM (inactive) |
| N=C(c1ccccc1)N(O)C1CCCCC1 | > 100 µM (inactive) | > 100 µM (inactive) | > 100 µM (inactive) | > 100 µM (inactive) |  | > 100 µM (inactive) |  | > 100 µM (inactive) | > 100 µM (inactive) |  | > 100 µM (inactive) |  | > 100 µM (inactive) | > 100 µM (inactive) | > 100 µM (inactive) |  |  |
| O=C(CC1(O)C(=O)Nc2ccccc21)c1ccc(O)cc1 (stereo not given) | > 100 µM (inactive) | > 100 µM (inactive) | > 100 µM (inactive) | > 100 µM (inactive) | > 100 µM (inactive) | > 100 µM (inactive) | > 100 µM (inactive) | > 100 µM (inactive) | > 100 µM (inactive) | > 100 µM (inactive) | > 100 µM (inactive) | > 100 µM (inactive) | > 100 µM (inactive) | > 100 µM (inactive) |  | > 100 µM (inactive) | > 100 µM (inactive) |
| O=C(CC(=O)N1N=C(c2ccccc2)C(/N=N/c2ccc(C(=O)O)cc2)C1=O)Nc1ccc(F)cc1 (stereo not given) | 16.7 µM (inactive) | 38.8 µM (inactive) | 36.4 µM (inactive) | 48.9 µM (inactive) | 14.3 µM (inactive) | 33.1 µM (inactive) | 22.5 µM (inactive) |  | 58.9 µM (inactive) | 12.2 µM (inactive) | 12.4 µM (inactive) | 20.5 µM (inactive) | 38.9 µM (inactive) | 21.2 µM (inactive) | 40.8 µM (inactive) |  |  |
| O=[N+]([O-])c1nccn1COCCO | > 100 µM (inactive) | > 100 µM (inactive) | > 100 µM (inactive) | > 100 µM (inactive) |  | > 100 µM (inactive) |  | > 100 µM (inactive) | > 100 µM (inactive) | > 100 µM (inactive) | > 100 µM (inactive) |  | > 100 µM (inactive) | > 100 µM (inactive) |  | 0.442 µM (active) | > 100 µM (inactive) |
| Cc1cccc(C(C)(C)C)c1NC(=O)CC1C(=O)Nc2ccccc2[S+]1[O-] (stereo not given) |  | 43.6 µM (inactive) | 57.1 µM (inactive) | 65 µM (inactive) | 49.7 µM (inactive) | 46.5 µM (inactive) |  | 73.6 µM (inactive) | 61.9 µM (inactive) |  | 55.7 µM (inactive) |  | 55.8 µM (inactive) | > 100 µM (inactive) | 97.1 µM (inactive) | 20.3 µM (inactive) |  |
| COc1ccc(Cc2cc3c(cc2OCC(=O)O)OCO3)cc1 | > 100 µM (inactive) | > 100 µM (inactive) | > 100 µM (inactive) | > 100 µM (inactive) | > 100 µM (inactive) | > 100 µM (inactive) | > 100 µM (inactive) | > 100 µM (inactive) | > 100 µM (inactive) | > 100 µM (inactive) | > 100 µM (inactive) | > 100 µM (inactive) | > 100 µM (inactive) | > 100 µM (inactive) | > 100 µM (inactive) | > 100 µM (inactive) | > 100 µM (inactive) |
| CCCCSC(=CC(=O)c1cccc(C(=O)C=C(SCCCC)SCCCC)n1)SCCCC | > 100 µM (inactive) | > 100 µM (inactive) | > 100 µM (inactive) | > 100 µM (inactive) | > 100 µM (inactive) | > 100 µM (inactive) | > 100 µM (inactive) | > 100 µM (inactive) | > 100 µM (inactive) | > 100 µM (inactive) | > 100 µM (inactive) | > 100 µM (inactive) | > 100 µM (inactive) | > 100 µM (inactive) | > 100 µM (inactive) | > 100 µM (inactive) | > 100 µM (inactive) |
